{
  "source": "the NIST ThermoML archive (doi:10.1016/j.fluid.2013.05.022)",
  "key": {"[1]": {"details": "298.15 K; 85.9 kPa; Liquid; Vibrating tube method"}, "[2]": {"assay": "refractive index (Na D-line) (dimensionless)", "details": "298.15 K; 859 kPa; Liquid; Standard Abbe refractometry"}},
  "note": "Numbers after ± are expanded uncertainties.",
  "data": [
    {"smiles": "CN(C)C=O", "note": "[dimethylformamide]", "values": [
      {"measurement": "mass density", "setting": "[1]", "result": "944.53 ± 1", "unit": "kg/m3"},
      {"measurement": "refractive index", "setting": "[2]", "result": "1.4281 ± 0.0004"}
    ]}
  ]
}
